The subject of one test is pSTAT5 NT in CD4 T cells. Briefly: PLA2-GIB bioassay on CD4 T cells: pSTAT5 nuclear translocation in response to IL-7, confocal microscopy. Format: cell-based, human. The text has this: Purification of Human CD4 T-lymphocytes—Venous blood was obtained from healthy volunteers through the EFS (Etablissement Français du Sang, Centre Necker-Cabanel, Paris). CD4 T-cells were purified from whole blood using RosetteSep Human CD4+ T cell Enrichment Cocktail (Stem Cell, 15062). This cocktail contains mouse and rat monoclonal antibodies purified from mouse ascites fluid or hybridoma culture supernatant, by affinity chromatography using protein A or Protein G sepharose. These antibodies are bound in bispecific tetrameric antibody complexes which are directed against cell surface antigens on human hematopoietic cells (CD8, CD16, CD19, CD36, CD56 CD66b, TCRγ/δ) and glycophorin A on red blood cells. The rosetteSep antibody cocktail crosslinks unwanted cells in human whole blood to multiple red blood cells, forming immunorosettes. This increases the density of unwanted cells, such that they pellet along with the free red blood cells when centrifuged over a buoyant density medium such as lymphocytes separation medium (Eurobio, CMSMSL01-01).
Whole blood was incubated with RosetteSep Human CD4+ T cell Enrichment Cocktail at 50 μl/ml for 20 minutes at room temperature under gentle shaking (100 rpm), diluted with an equal volume of PBS+2% foetal bovine serum (FBS) and mixed gently. The diluted samples were centrifuged 20 minutes at 1200×g on top of lymphocytes separation medium. The enriched cells were then collected from the density medium at plasma interface and washed twice with PBS+2% FBS. Cells were subsequently resuspended in RPMI 1640 medium (Lonza) supplemented with 5% FBS, 50 mM HEPES pH 7.4, glutamine, penicillin, streptomycin and fungizone (complete medium), counted with a Moxi Z mini automated cell counter (ORFLO, MXZ000). Cells suspension was adjusted at 7×10^6 cells/ml and equilibrated at least 2 h at 37° C. in a 5% CO2 humidified atmosphere.
The enriched CD4-T cell population was controlled by flow cytometry on a cytoflex (Beckman coulter). The quiescence of recovered CD4 T-cells was controlled by the low level of IL-2Rα (CD25).

The next test deals with T1, gC1qR (Homo sapiens, UniProt Q07021).
T1 sequence (Q07021 74-282): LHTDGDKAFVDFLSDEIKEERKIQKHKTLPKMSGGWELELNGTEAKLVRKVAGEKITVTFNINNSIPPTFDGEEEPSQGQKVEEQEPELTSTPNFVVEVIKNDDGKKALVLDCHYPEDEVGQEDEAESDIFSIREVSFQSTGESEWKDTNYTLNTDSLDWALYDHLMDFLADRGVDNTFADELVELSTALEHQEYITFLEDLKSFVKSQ
The test can be described thus: gC1qR-peptides binding assay (ELISA on microplates). The conditions noted are these: peptide coated, His-tag-gC1qR 0 to 3 μg/well, FIG. 12. As to the method:
The unbound protein was removed; the wells washed 2× with TBST (20 mM Tris-HCl pH 7.5, 150 mM NaCl, and 0.05% Tween-20) and the unreacted sites blocked by incubation (30 min, room temp) with 300 μl of 3% BSA in TBST. After washing (2× with TBST), the microtiter plate bound peptides was incubated (2 h, room temp.) with different amount of His-tag-gC1qR ranging from 0 to 3 μg/well in triplicate. After washing (5 times with TBST), 100 μl of anti-His tag-HRP antibody (1:1000; 71840-3, Merck) in 3% BSA in TBST was added per well and incubated for 2 h at room temperature. Microplates wells were then washed (5 times with TBST) and 100 μl of TMB ELISA substrate standard solution (UP664781, Interchim) was added per well. Reaction was stopped with 100 μl per well of a H2SO4 solution at 0.16M and OD at 450 nm was measured on a microplate reader (Tecan Infinite M1000 Pro).
A scrambled peptide or a control peptide were used as control.
Background: ELISA stands for enzyme-linked immunosorbent assay.

Regarding “NH2-PWNASWSNKSLDDIW—COOH (H-PWNASWSNKSLDDIW-OH) [PEP3]”, the “inhibition of pSTAT5 NT” value in the test with pSTAT5 NT in CD4 T cells (0.025 μg/ml of PEP3 with 5 nM of PLA2-GIB, FIG. 5B) was found to be 18%; with pSTAT5 NT in CD4 T cells (0.5 μg/ml of PEP3 alone, n=3 donors, FIG. 5C), 5%. Further, the “effect on pSTAT5 NT” value in the test on pSTAT5 NT in CD4 T cells (peptide alone, without PLA2-GIB, FIG. 5B) is recorded as “no effect”. Besides, in the test with gC1qR, the “binding to gC1qR” value is given as “binds”.

The values above are taken from patent US20200399392A1, “INHIBITORS OF PLA2-G1B COFACTORS FOR TREATING CANCER” (priority 2018, published 2020).
